# According to a melting point compilation (Tetko et al.; mined from patent text by program, amines drawn as free bases though some values may be those of a salt):
row,Compound,melting point
1,COC(=O)c1sc(N)cc1NC(C)=O,162 to 163 °C
2,Cc1ccc2onc(-c3ccc(Cl)cc3)c2c1,95 °C
3,COc1cc2c(cc1Nc1ncc(Cl)c(Nc3ccccc3C(=O)OC(C)C)n1)CCN(CCCN(C)C)C(=O)C2,63 to 90 °C
4,CN(C)C=C1Cc2c(Cl)cccc2C1=O,148 to 150 °C
5,O=[N+]([O-])c1c(NCCO)cc(Cl)cc1NCCO,154 °C
6,O=C(O)Cc1cccc2c(=O)cc(-c3cccc(F)c3)oc12,208 to 211 °C
7,CN(C)C(=O)c1ccc(-c2ccc3nnn(Cc4ccc5ncccc5c4)c3n2)cc1F,163 to 165 °C
8,O=C(NCc1ccc(Cl)cc1)c1cn(Cc2cccc(F)c2)c2sc(CN3CCOCC3)cc2c1=O,214 to 215 °C
9,COc1cccc2c1nc(C(F)F)n2-c1nc(Nc2ccc(N(C)S(C)(=O)=O)nc2)nc(N2CCOCC2)n1,250 to 253 °C
10,CC(=O)Oc1ccc(-c2c(CBr)c3ccc(F)cc3oc2=O)c(OC(C)=O)c1,230 to 231 °C
11,O=C(NC[C@@H](C(=O)NO)N1CCCCC1)c1ccc(OCc2cc(Cl)nc(Cl)c2)cc1,145 °C
12,CCc1cccc(CC)c1NC(=O)NC1(c2cccs2)CCCCC1,208 to 210 °C
13,O=C1c2cc(O)ccc2OCC1Cc1ccccn1 (stereo unspecified),150 to 151 °C
14,CC(=O)N1c2ccccc2[C@@]2(C)Cc3ccccc3[C@@]12C (relative stereo),81 °C
15,CN(C)Cc1cc(C(=O)c2cccn2C)cc(C(C)(C)C)c1O,174 °C
16,CN(C)C1(c2ccccc2)CCC(C(=O)c2cc3ccccc3n2C)(N2CCCC2)CC1 (stereo unspecified),212 to 218 °C
17,OC1CSC(Oc2ccc(-c3ccc(Cl)nc3)nc2)C(O)C1O (stereo unspecified),170 °C
18,CCc1c(C(=O)OC)c(C(F)(F)F)nc(C(F)(F)F)c1C(=O)OC,45 to 47 °C
19,Cc1cccc(S(=O)(=O)n2ccc(Br)c2)c1C#N,98 to 100 °C
20,O=C1NC(=O)[C@@]2(C[C@@H](C(=O)NCCN3CCN(CC=Cc4ccccc4)CC3)Oc3ccc(F)cc32)N1,133 to 135 °C
21,OC(CNC1CC1)c1cccc(Br)c1 (stereo unspecified),69.5 to 70.4 °C
22,CCCCC1(O)C2=NCC3(CCCCC3)CN2c2ccccc21 (stereo unspecified),192 to 195 °C
23,O=c1c2cc(F)c(N3CCCC3)nc2n(-c2ccccc2F)c(=O)n1O,> 250 °C
24,NNC(=O)[C@@H]1C[C@]2(NC(=O)NC2=O)c2cc(F)ccc2O1,277 to 278 °C
25,C[C@H](NC(=O)OC(C)(C)C)C(=O)Oc1c[nH]c2ccccc12,158 °C
26,O=C1Cc2cc(C(=O)CCl)c(Br)cc2N1,238 to 239 °C

row,Compound,melting point
1,O=C(O)COc1ccc(SCc2ccc(OCc3ccc(C(F)(F)F)cc3)cc2)c2c1CCC2,145 °C
2,NC(=NCC(F)(F)F)Nc1ccnc(OCCCO)n1,118 to 120 °C
3,C(=C\c1nc(COc2cccc(CCCn3ccnc3)c2)co1)/c1ccccc1,86 to 87 °C
4,Cc1nc(N2CCCC(NCc3ccc(C(F)(F)F)cc3)C2=O)sc1C(=O)NCc1ccccc1 (stereo unspecified),39 to 40 °C
5,OC(CNCCCCCCOCCCCc1ccccc1)c1ccc2c(n1)COC(c1ccccc1)O2 (stereo unspecified),67 to 73 °C
6,NC(=NO)c1ccccc1N,85 to 86 °C
7,O=C(C1CCCCC1)C1CCN(Cc2cc(O)c(O)cc2[N+](=O)[O-])CC1,240 °C
8,COC(=O)COc1ccc(C(=O)C(C)(C)Br)cc1,46 to 50 °C
9,Cc1ccc(C)c(OCCCC(C)(C)C(=O)Nc2cccc(C3=NCCCO3)c2)c1,114 to 115 °C
10,CCCCCCC(C)(C)c1ccc([C@@H]2CC(=O)C[C@@H](O)C2)c(OCc2ccccc2)c1 (relative stereo),95 °C
11,CN(CCc1ccccn1)C(=O)CCSc1cc(Cl)c(O)c(Cl)c1,120 to 123 °C
12,CCCCCCCCCCCCCCCCC#CCBr,34 to 35 °C
13,C=CCONC(=O)Cc1ccc(OC)cc1,100 to 101 °C
14,N#Cc1ccc(C(O)(Cc2ccccc2)Cc2ccccc2)cc1,153 °C
15,CN1C(=O)SC(C)(S(=O)(=O)c2cccc3c(Br)cccc23)C1=O (stereo unspecified),160 to 161 °C
16,Nc1ccc(CO)c(Nc2nccc(-c3cccnc3)n2)c1,213 to 215 °C
17,CN1CCN(C(=O)OC2C3=C(SCCS3)C(=O)N2c2ccccn2)CC1 (stereo unspecified),145 °C
18,CN(C)c1ccc2c(c1)C(=O)CC(c1ccccc1O)=N2,296 to 298 °C
19,CCCc1c(OCc2ccc(OCC(=O)O)cc2)ccc(C(C)=O)c1O,140 to 142 °C
20,CCOC(CNC(=N)NN1CCc2cc(Cl)ccc21)OCC,163 to 165 °C
21,O=c1c(CCl)coc2c1COc1ccccc1-2,163 to 165 °C
22,CCOC(=O)C(C=C(C)CP(=O)(OCCCl)OCCCl)NC=O (stereo unspecified),47 to 49 °C
23,CCC(CC)C(NS(=O)(=O)c1ccc(Br)s1)c1ccnn1-c1ccccc1 (stereo unspecified),120 to 121 °C
24,CCCCc1nc(=O)n2ncc(Br)c2[nH]1,188 °C
25,CCCC(=O)c1cnc2c(OC)cccc2c1Nc1ccc(CO)cc1,187 to 189 °C
26,Cn1nc2c(-c3ccc(Cl)cc3Cl)cccc2c1CCc1ncn[nH]1,92 to 116 °C

row,Compound,melting point
1,O=C(CCBr)N1CC(c2ccccc2)c2ccccc21 (stereo unspecified),98 to 99 °C
2,CC(=O)OC1CSC(Oc2ccc(-c3ccoc3)cc2F)C(OC(C)=O)C1OC(C)=O (stereo unspecified),137 °C
3,Cc1cc(Cl)nn2c(-c3ccnc4[nH]ccc34)c(-c3ccc(F)cc3)nc12,226 to 228 °C
4,CSCc1cn(C)c2cc(C(C)(C)C)ccc2c1=O,114 to 116 °C
5,COc1cn2nc(Cl)ccc2n1,134 to 136 °C
6,COc1cc(Nc2c(C#N)cnc3cc4c(cc23)ncn4CCN2CCOCC2)c(C)cc1Cl,246 to 248 °C
7,CCOCc1nc2c(N)nc3c(c2n1CCCCCS(N)(=O)=O)CCCC3,203 to 205 °C
8,CON1C(=O)[C@@H](NC(=O)OC(C)(C)C)[C@@H]1C1CCCCC1 (relative stereo),110 to 112 °C
9,CCOc1cc2nc[nH]c(=O)c2cc1OCC,255 to 257 °C
10,CC(=O)Oc1cc(C(=O)O)cc(C(=O)O)c1,240 °C
11,COc1ccc(CC(C(O)CCC(C#N)(c2ccc(OC)c(OC)c2)C(C)C)[N+](=O)[O-])cc1OC (stereo unspecified),171 to 173 °C
12,O=C(CCC(Cl)(Cl)Cl)Nc1cccc(-c2ccnc3c(C(=O)c4cccs4)cnn23)c1,189 to 191 °C
13,COc1cc(C(=O)N2Cc3ccc(C(=O)N(C)CC(O)CO)n3Cc3ccccc32)ccc1-c1ccccc1C(F)(F)F (stereo unspecified),119 to 123 °C
14,O=S(Cc1ccccn1)c1cnc2ccccc2n1 (stereo unspecified),117 to 122 °C
15,Cc1cc(C(C)(C)C)c(OC(=O)c2cc(C(C)(C)C)c(O)c(C(C)(C)C)c2)c(C)c1COC(=S)c1cc(C(C)(C)C)c(O)c(C(C)(C)C)c1,225 to 228 °C
16,COc1cccc(CC(=O)O)c1OCCCc1cn(-c2ccc(NC(C)=O)cn2)nc1C(C)C,158 to 159 °C
17,CCOC(=O)C1=C(COCCN)NC(C)=C(C(=O)OC)C1c1cccc(C(F)(F)F)c1Cl (stereo unspecified),122 °C
18,CC(Nc1c(-c2ccc(C#N)cc2)c(=O)c1=O)C(C)(C)C (stereo unspecified),192 to 194 °C
19,N#CC(Cl)Cc1ccc(Cl)cc1C(=O)c1ccccc1F (stereo unspecified),94 to 95 °C
20,O=CNNc1ccc(NC(=S)N2CCOCC2)cc1,204 to 206 °C
21,CCOc1cc(C(=O)CCCC2CCCCC2)c(OC)cc1C,37 to 38 °C
22,COc1nc(Cl)n2nc(SCc3ccccc3)nc2c1Br,124 to 125 °C
23,Clc1ccc(I)cc1CBr,94 to 95 °C
24,CCCOCCc1ccc(-c2ccc3c(c2)C=C(C(=O)Nc2ccc(CN(C)C4CCOCC4)cc2)CCS3(=O)=O)c(Cl)c1,150 to 152 °C
25,CCSc1ccc(N)c(C(=O)O)c1,97 to 100 °C
26,COc1ccc(C(=O)Nc2c(Cl)cncc2Cl)cc1OC1C=CCC1 (stereo unspecified),177 to 178 °C

row,Compound,melting point
1,CC(=O)C(=NNc1ccc(OC(C)(C)C)cc1)Sc1ccc(Cl)cc1,107 to 108 °C
2,CCC1(CC)OC(=O)c2cc([N+](=O)[O-])ccc21,98.5 to 100 °C
3,COc1cc2ncc(C#N)c(Nc3cccc(N(C)C)c3)c2cc1OC,246 to 249 °C
4,C=CCNc1nc(NC)c2cc([N+](=O)[O-])ccc2n1,211 to 212 °C
5,Cc1cc(I)cc2c1oc(=O)n2C,100 to 101 °C
6,CCn1nnc(-c2ccc(C(=O)N[C@@H]3CCCC[C@@H]3c3ccc(OC)c(OC)c3)cc2)n1,188 to 192 °C
7,O=C1NCCC[C@@H]1NS(=O)(=O)c1cc(F)ccc1F,183 to 185 °C
8,Nc1cc(N2C(=O)c3ccccc3C2=O)c(F)cc1Cl,148 °C
9,CCCC1=C(C(=O)OCC)C(c2cc(OC)ccc2OC)c2c[nH]nc2N1 (stereo unspecified),169 to 170 °C
10,Cn1c(=O)cc(-c2cccc(Cl)c2)c2cccnc21,168 to 170 °C
11,CCOC(=O)/C=C/C=Cc1ccc(OCCc2nc(-c3ccccc3)oc2C)cc1,102 to 103 °C
12,COC(=O)c1ccc2c(c1)C(=O)C(Cc1cccc(C(=O)O)c1)O2 (stereo unspecified),140 to 143 °C
13,Cc1cc(NC(=O)OC(C)(C)C)c([N+](=O)[O-])cc1C#Cc1ccccc1,161 to 164 °C
14,Cc1cc2c(c3ccc(=O)[nH]c13)OC(CSCCN(C)C)C2 (stereo unspecified),163 to 165 °C
15,CSc1nn2c(N)cc(C)nc2c1S(=O)(=O)c1ccc(Br)cc1,> 230 °C
16,Nc1cc(=O)[nH]c(=O)n1Cc1ccncc1,163 to 168 °C
17,CC(CC[Si](CCC(C)[N+](=O)[O-])(c1ccccc1)c1ccccc1)[N+](=O)[O-] (stereo unspecified),84 to 85 °C
18,CCOc1ccc(/C=C/c2nc3c([nH]2)c(=O)n(CC)c(=O)n3CC)cc1,297 to 299 °C
19,COc1cc(C2c3cc4c(cc3C(NC3=CC(=O)N(C)C3=O)C3COC(=O)C23)OCO4)cc(OC)c1O (stereo unspecified),238 to 241 °C
20,CCOC(=O)c1cccc2nc3cc(C(=O)c4ccccc4)ccc3nc12,115 to 116 °C
21,Cc1nc2c(O)c(CC[C@H](O)c3ccccc3)c(C(=O)N(C)C)cn2c1C,185 to 187 °C
22,Cc1nnc2n1-c1ccc(Cl)cc1C(N1CC=CCC1)=NC2,192 to 194 °C
23,Cc1c(C(=O)O)cnn1-c1cc(C(F)(F)F)ccc1Cl,124 to 125 °C
